According to ChEMBL document CHEMBL1126497, “A new type of cytotoxic annonaceous acetogenin: Giganin from goniothalamus giganteus” (1993):
In brackets after ≈: the same amount, converted by molar mass.

Key:
Format in all cases: functional
[1] = test system: HT-29; assay: The compound was tested for cytotoxicity against […] in human colon adenocarcinoma; details: read-out: ED50 (the source's name)
[2] = The compound was tested for cytotoxicity against BST cell in brine shrimp; details: Artemia
[3] = test system: MCF7; assay: The compound was tested for cytotoxicity against MCF-7 cell in human breast carcinoma; details: read-out: ED50 (the source's name)
[4] = test system: A549; assay: The compound was tested for cytotoxicity against A-549 cell in human lung carcinoma; details: read-out: ED50 (the source's name)

CCCCCCCCCCCCCCC(O)C(O)CC/C=C\CCC(O)CCCCCC(O)CC1=CC(C)OC1=O (centres undefined)
EC50 [1]: 0.00688 µg/mL (≈ 0.0118 µM)
LC50 [2]: 890 µg/mL (≈ 1530 µM)
EC50 [3]: 1.03 µg/mL (≈ 1.77 µM)
EC50 [4]: 0.0188 µg/mL (≈ 0.0324 µM)
